# Test results as given in patent publication US7754880B2, “Uracils having a herbicidal activity” (Isagro Ricerca S.r.l., priority 2002, dated 2010).
# How the values were obtained:
# Portulaca oleracea [1] = test: Herbicidal activity in post-emergence; assay type: in vivo; conditions: dosage of 15 g/ha, fifteen days after the treatment, damage vs non-treated plants
# Experimental: (§1) Determination of the Herbicidal Activity and Phytotoxicity in Post-Emergence The herbicidal activity of the compounds of the invention in post-emergence was evaluated according to the following operative procedures. The vegetable species of interest (weeds or crops) were sown in pots with an upper diameter of 10 cm, a height of 10 cm and containing sandy soil. 10 pots were used for each vegetable species. Water was added to each pot in such a quantity as to germinate the seeds. The pots were divided into two groups, each containing 5 pots for each weed or crop. Fifteen days after sowing (ten, in the case of wheat), when the weeds and crops, according to the species, were 10-15 cm high, the first set of pots was treated with a hydro-acetonic dispersion containing acetone at 10% in volume, the product under evaluation at the desired concentration and Tween 20 at 0.5%. The second set was treated with a hydro-acetonic solution only, containing acetone at 10% in volume and Tween 20 at 0.5%, and was used as comparison (blank). All pots were kept under observation in a conditioned environment under the following conditions: temperature: 24° C.; relative humidity: 60%; photo-period: 16 ore; light intensity: 10000 lux. The pots were uniformly watered every other day so as to ensure a humidity degree sufficient for a good development of the plants.
# Abutilon theofrasti [2] = test: Herbicidal activity in post-emergence; assay type: in vivo; conditions: dosage of 15 g/ha, fifteen days after the treatment, damage vs non-treated plants
# Experimental: as §1
# Galium aparine [3] = test: Herbicidal activity in post-emergence; assay type: in vivo; conditions: dosage of 15 g/ha, fifteen days after the treatment, damage vs non-treated plants
# Experimental: as §1
# Sida spinosa [4] = test: Herbicidal activity in post-emergence; assay type: in vivo; conditions: dosage of 15 g/ha, fifteen days after the treatment, damage vs non-treated plants
# Experimental: as §1
# Solanum nigrum [5] = test: Herbicidal activity in post-emergence; assay type: in vivo; conditions: dosage of 15 g/ha, fifteen days after the treatment, damage vs non-treated plants
# Experimental: as §1
# Amaranthus retroflexus [6] = test: Herbicidal activity in post-emergence; assay type: in vivo; conditions: dosage of 15 g/ha, fifteen days after the treatment, damage vs non-treated plants
# Experimental: as §1
# Ipomea purpurea [7] = test: Herbicidal activity in post-emergence; assay type: in vivo; conditions: dosage of 15 g/ha, fifteen days after the treatment, damage vs non-treated plants
# Experimental: as §1
# Convolvulus sepium [8] = test: Herbicidal activity in post-emergence; assay type: in vivo; conditions: dosage of 15 g/ha, fifteen days after the treatment, damage vs non-treated plants
# Experimental: as §1
# Chenopodium album [9] = test: Herbicidal activity in post-emergence; assay type: in vivo; conditions: dosage of 15 g/ha, fifteen days after the treatment, damage vs non-treated plants
# Experimental: as §1
# Portulaca oleracea [10] = test: Herbicidal activity in pre-emergence; assay type: in vivo; conditions: dosage of 15 g/ha, fifteen days after the treatment, damage vs non-treated plants
# Experimental: (§2) Determination of the Herbicidal Activity and Phytotoxicity in Pre-Emergence The herbicidal activity of the compounds of the invention in pre-emergence was evaluated according to the following operative procedures. The vegetable species of interest (weeds or crops) were sown in pots with an upper diameter of 10 cm, a height of 10 cm and containing sandy soil. 10 pots were used for each vegetable species. Water was added to each pot in such a quantity as to germinate the seeds. The pots were divided into two groups, each containing 5 pots for each weed or crop. After one day from the sowing, the first set of pots was treated with a hydro-acetonic dispersion containing acetone at 10% in volume, the product under evaluation at the desired concentration and Tween 20 at 0.5%. The second set was treated with a hydro-acetonic solution only, containing acetone at 10% in volume and Tween 20 at 0.5%, and was used as comparison (blank). All pots were kept under observation in a conditioned environment under the following conditions: temperature: 24° C.; relative humidity: 60%; photoperiod: 16 ore; light intensity: 10000 lux. The pots were uniformly watered in order to ensure a sufficient humidity degree for a good development of the plants.
# Abutilon theofrasti [11] = test: Herbicidal activity in pre-emergence; assay type: in vivo; conditions: dosage of 15 g/ha, fifteen days after the treatment, damage vs non-treated plants
# Experimental: as §2
# Galium aparine [12] = test: Herbicidal activity in pre-emergence; assay type: in vivo; conditions: dosage of 15 g/ha, fifteen days after the treatment, damage vs non-treated plants
# Experimental: as §2
# Sida spinosa [13] = test: Herbicidal activity in pre-emergence; assay type: in vivo; conditions: dosage of 15 g/ha, fifteen days after the treatment, damage vs non-treated plants
# Experimental: as §2
# Solanum nigrum [14] = test: Herbicidal activity in pre-emergence; assay type: in vivo; conditions: dosage of 15 g/ha, fifteen days after the treatment, damage vs non-treated plants
# Experimental: as §2
# Amaranthus retroflexus [15] = test: Herbicidal activity in pre-emergence; assay type: in vivo; conditions: dosage of 15 g/ha, fifteen days after the treatment, damage vs non-treated plants
# Experimental: as §2
# Ipomea purpurea [16] = test: Herbicidal activity in pre-emergence; assay type: in vivo; conditions: dosage of 15 g/ha, fifteen days after the treatment, damage vs non-treated plants
# Experimental: as §2
# Convolvulus sepium [17] = test: Herbicidal activity in pre-emergence; assay type: in vivo; conditions: dosage of 15 g/ha, fifteen days after the treatment, damage vs non-treated plants
# Experimental: as §2
# Chenopodium album [18] = test: Herbicidal activity in pre-emergence; assay type: in vivo; conditions: dosage of 15 g/ha, fifteen days after the treatment, damage vs non-treated plants
# Experimental: as §2
compound,measurement,setting,value
"COC(=O)/C=C(\COc1cc(-n2c(=O)cc(C(F)(F)F)n(C)c2=O)c(F)cc1Cl)OC [Compound No 2, methyl (2E)-4-{2-chloro-4-fluoro-5-[1,2,3,6-tetrahydro-3-methyl-2,6-dioxo-4-(trifluoromethyl)pyrimidin-1-yl]phenoxy}-3-methoxybut-2-enoate]","Herbicidal activity in post-emergence, PO",Portulaca oleracea [1],4 (4=71-90% damage)
same,"Herbicidal activity in post-emergence, AT",Abutilon theofrasti [2],5 (5=91% damage—death of the plant)
same,"Herbicidal activity in post-emergence, GA",Galium aparine [3],5 (5=91% damage—death of the plant)
same,"Herbicidal activity in post-emergence, SS",Sida spinosa [4],5 (5=91% damage—death of the plant)
same,"Herbicidal activity in post-emergence, SN",Solanum nigrum [5],5 (5=91% damage—death of the plant)
same,"Herbicidal activity in post-emergence, AR",Amaranthus retroflexus [6],5 (5=91% damage—death of the plant)
same,"Herbicidal activity in post-emergence, IP",Ipomea purpurea [7],5 (5=91% damage—death of the plant)
same,"Herbicidal activity in post-emergence, CS",Convolvulus sepium [8],5 (5=91% damage—death of the plant)
same,"Herbicidal activity in post-emergence, CA",Chenopodium album [9],5 (5=91% damage—death of the plant)
same,"Herbicidal activity in pre-emergence, PO",Portulaca oleracea [10],5 (5=91% damage—death of the plant)
same,"Herbicidal activity in pre-emergence, AT",Abutilon theofrasti [11],5 (5=91% damage—death of the plant)
same,"Herbicidal activity in pre-emergence, GA",Galium aparine [12],5 (5=91% damage—death of the plant)
same,"Herbicidal activity in pre-emergence, SS",Sida spinosa [13],5 (5=91% damage—death of the plant)
same,"Herbicidal activity in pre-emergence, SN",Solanum nigrum [14],5 (5=91% damage—death of the plant)
same,"Herbicidal activity in pre-emergence, AR",Amaranthus retroflexus [15],5 (5=91% damage—death of the plant)
same,"Herbicidal activity in pre-emergence, IP",Ipomea purpurea [16],5 (5=91% damage—death of the plant)
same,"Herbicidal activity in pre-emergence, CS",Convolvulus sepium [17],5 (5=91% damage—death of the plant)
same,"Herbicidal activity in pre-emergence, CA",Chenopodium album [18],5 (5=91% damage—death of the plant)
"Cn1nnc(-c2cc(-n3c(=O)cc(C(F)(F)F)n(C)c3=O)ccc2Cl)n1 [Compound No 13, 3-[4-chloro-3-(2-methyl-2H-tetrazol-5-yl)phenyl]-1-methyl-6-(trifluoromethyl)-2,4(1H,3H)-pyrimidinedione]","Herbicidal activity in post-emergence, PO",Portulaca oleracea [1],5 (5=91% damage—death of the plant)
same,"Herbicidal activity in post-emergence, AT",Abutilon theofrasti [2],5 (5=91% damage—death of the plant)
same,"Herbicidal activity in post-emergence, SS",Sida spinosa [4],5 (5=91% damage—death of the plant)
same,"Herbicidal activity in post-emergence, SN",Solanum nigrum [5],5 (5=91% damage—death of the plant)
same,"Herbicidal activity in post-emergence, AR",Amaranthus retroflexus [6],5 (5=91% damage—death of the plant)
same,"Herbicidal activity in post-emergence, IP",Ipomea purpurea [7],5 (5=91% damage—death of the plant)
same,"Herbicidal activity in post-emergence, CA",Chenopodium album [9],5 (5=91% damage—death of the plant)
same,"Herbicidal activity in pre-emergence, PO",Portulaca oleracea [10],5 (5=91% damage—death of the plant)
same,"Herbicidal activity in pre-emergence, AT",Abutilon theofrasti [11],5 (5=91% damage—death of the plant)
same,"Herbicidal activity in pre-emergence, GA",Galium aparine [12],5 (5=91% damage—death of the plant)
same,"Herbicidal activity in pre-emergence, SS",Sida spinosa [13],5 (5=91% damage—death of the plant)
same,"Herbicidal activity in pre-emergence, SN",Solanum nigrum [14],5 (5=91% damage—death of the plant)
same,"Herbicidal activity in pre-emergence, AR",Amaranthus retroflexus [15],5 (5=91% damage—death of the plant)
same,"Herbicidal activity in pre-emergence, IP",Ipomea purpurea [16],5 (5=91% damage—death of the plant)
same,"Herbicidal activity in pre-emergence, CA",Chenopodium album [18],5 (5=91% damage—death of the plant)
same,melting point,,192 °C
"Cn1c(C(F)(F)F)cc(=O)n(-c2cc(OCc3nnc(C(C)(C)C)o3)c(Cl)cc2F)c1=O [Compound No 6, 3-{5-[(5-tert-butyl-1,3,4-oxadiazol-2-yl)methoxy]-4-chloro-2-fluorophenyl}-1-methyl-6-(trifluoromethyl)-2,4(1H,3H)-pyrimidinedione]","Herbicidal activity in post-emergence, PO",Portulaca oleracea [1],4 (4=71-90% damage)
same,"Herbicidal activity in post-emergence, AT",Abutilon theofrasti [2],5 (5=91% damage—death of the plant)
same,"Herbicidal activity in post-emergence, SS",Sida spinosa [4],4 (4=71-90% damage)
same,"Herbicidal activity in post-emergence, SN",Solanum nigrum [5],5 (5=91% damage—death of the plant)
same,"Herbicidal activity in post-emergence, AR",Amaranthus retroflexus [6],3 (3=51-70% damage)
same,"Herbicidal activity in post-emergence, IP",Ipomea purpurea [7],5 (5=91% damage—death of the plant)
same,"Herbicidal activity in post-emergence, CA",Chenopodium album [9],4 (4=71-90% damage)
same,"Herbicidal activity in pre-emergence, PO",Portulaca oleracea [10],5 (5=91% damage—death of the plant)
same,"Herbicidal activity in pre-emergence, AT",Abutilon theofrasti [11],5 (5=91% damage—death of the plant)
same,"Herbicidal activity in pre-emergence, GA",Galium aparine [12],5 (5=91% damage—death of the plant)
same,"Herbicidal activity in pre-emergence, SS",Sida spinosa [13],5 (5=91% damage—death of the plant)
same,"Herbicidal activity in pre-emergence, SN",Solanum nigrum [14],5 (5=91% damage—death of the plant)
same,"Herbicidal activity in pre-emergence, AR",Amaranthus retroflexus [15],4 (4=71-90% damage)
same,"Herbicidal activity in pre-emergence, IP",Ipomea purpurea [16],4 (4=71-90% damage)
same,"Herbicidal activity in pre-emergence, CA",Chenopodium album [18],5 (5=91% damage—death of the plant)
"C=CCn1nnc(-c2cc(-n3c(=O)cc(C(F)(F)F)n(C)c3=O)ccc2Cl)n1 [Compound No 105, 3-[3-(2-allyl-2H-tetrazol-5-yl)-4-chlorophenyl]-1-methyl-6-(trifluoromethyl)-2,4(1H,3H)-pyrimidinedione]",melting point,,116 °C
"C=CCn1nnnc1-c1cc(-n2c(=O)cc(C(F)(F)F)n(C)c2=O)ccc1Cl [Compound No 106, 3-[3-(1-allyl-1H-tetrazol-5-yl)-4-chlorophenyl]-1-methyl-6-(trifluoromethyl)-2,4(1H,3H)-pyrimidinedione]",melting point,,160 °C
"CCn1nnc(-c2cc(-n3c(=O)cc(C(F)(F)F)n(C)c3=O)ccc2Cl)n1 [Compound No 15, 3-[4-chloro-3-(2-ethyl-2H-tetrazol-5-yl)phenyl]-1-methyl-6-(trifluoromethyl)-2,4(1H,3H)-pyrimidinedione]",melting point,,136 °C
"COCn1nnnc1-c1cc(-n2c(=O)cc(C(F)(F)F)n(C)c2=O)ccc1Cl [Compound No 102, 3-{4-chloro-3-[1-(methoxymethyl)-1H-tetrazol-5-yl]phenyl}-1-methyl-6-(trifluoromethyl)-2,4(1H,3H)-pyrimidinedione]",melting point,,182 °C
"Cn1c(C(F)(F)F)cc(=O)n(-c2cc(OCc3nnn[nH]3)c(Cl)cc2F)c1=O [Compound No 7, 3-[4-chloro-2-fluoro-5-(tetrazol-5-ylmethoxy)phenyl]-1-methyl-6-(trifluoromethyl)-2,4(1H,3H)-pyrimidinedione]",melting point,,82 °C
"Cn1nnnc1-c1cc(-n2c(=O)cc(C(F)(F)F)n(C)c2=O)ccc1Cl [Compound No 14, 3-[4-chloro-3-(1-methyl-1H-tetrazol-5-yl)phenyl]-1-methyl-6-(trifluoromethyl)-2,4(1H,3H)-pyrimidinedione]",melting point,,185 °C
"Cn1nnc(COc2cc(-n3c(=O)cc(C(F)(F)F)n(C)c3=O)c(F)cc2Cl)n1 [Compound No 42, 3-{4-chloro-2-fluoro-5-[(2-methyl-2H-tetrazol-5-yl)methoxy]phenyl}-1-methyl-6-(trifluoromethyl)-2,4(1H,3H)-pyrimidinedione]",melting point,,167 °C
"CCOC(=O)c1csc(-c2cc(-n3c(=O)cc(C(F)(F)F)n(C)c3=O)ccc2Cl)n1 [Compound No 156, ethyl 2-{2-chloro-5-[1,2,3,6-tetrahydro-3-methyl-2,6-dioxo-4-(trifluoromethyl)pyrimidin-1-yl]phenyl}-1,3-thiazole-4-carboxylate]",melting point,,197 °C
"CCCCn1nnc(-c2cc(-n3c(=O)cc(C(F)(F)F)n(C)c3=O)ccc2Cl)n1 [Compound No 157, 3-[3-(2-butyl-2H-tetrazol-5-yl)-4-chlorophenyl]-1-methyl-6-(trifluoromethyl)-2,4(1H,3H)-pyrimidinedione]",melting point,,108 °C
"Cc1cc(COc2cc(-n3c(=O)cc(C(F)(F)F)n(C)c3=O)c(F)cc2Cl)on1 [Compound No 107, 3-{4-chloro-2-fluoro-5-[(3-methylisoxazol-5-yl)methoxy]phenyl}-1-methyl-6-(trifluoromethyl)-2,4(1H,3H)-pyrimidinedione]",melting point,,154 °C
